Measurements reported in ChEMBL document CHEMBL1201862, “PubChem BioAssay data set” (2004).
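Each compound was tested at five concentrations against cells in 96-well plates for 48 hours. At the GI50, growth is halved.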 Active and inactive are the calls of the source. Rule as the data show it: active = GI50 up to about 1.1 µM and inactive = higher.

Tests used:
Assay in all cases: NCI anticancer screen, dose series, 48 h
[1] = system: NCI-H460
[2] = system: COLO 205
[3] = system: NCI-H23
[4] = system: RPMI-8226
[5] = system: SF-295
[6] = system: K562
[7] = system: UACC-62
[8] = system: HCT-116
[9] = system: A498
[10] = system: ACHN
[11] = system: MCF7
[12] = system: OVCAR-8
[13] = system: UACC-257
[14] = system: OVCAR-3
[15] = system: SW-620
[16] = system: LOX IMVI
[17] = system: HL-60
[18] = system: NCI-H226
[19] = system: SK-MEL-28
[20] = system: SK-OV-3

Row | Compound | GI50 [1] | GI50 [2] | GI50 [3] | GI50 [4] | GI50 [5] | GI50 [6] | GI50 [7] | GI50 [8] | GI50 [9] | GI50 [10] | GI50 [11] | GI50 [12] | GI50 [13] | GI50 [14] | GI50 [15] | GI50 [16] | GI50 [17] | GI50 [18] | GI50 [19] | GI50 [20]
1 | COc1nc(Cl)nc(N[C@H](C)c2c3ccccc3cc3ccccc23)n1 | 17000 nM (inactive) | 14400 nM (inactive) | 16900 nM (inactive) | 5300 nM (inactive) | 15600 nM (inactive) | 8490 nM (inactive) | 628 nM (active) | 12400 nM (inactive) | < 10 nM (active) | 17800 nM (inactive) | 14200 nM (inactive) | 14800 nM (inactive) | 16000 nM (inactive) | 11100 nM (inactive) | 15200 nM (inactive) | 15600 nM (inactive) | 19100 nM (inactive) | 13100 nM (inactive) | 2300 nM (inactive) | 15700 nM (inactive)
2 | COC1=CC(=O)c2c(c(COC(C)=O)cn2C)C1=O | 115 nM (active) | 28.2 nM (active) | 71.5 nM (active) | 211 nM (active) | 28.6 nM (active) | 150 nM (active) | 130 nM (active) | 34.7 nM (active) | 244 nM (active) | 30.6 nM (active) | 184 nM (active) | 122 nM (active) | 334 nM (active) | 158 nM (active) | 24.9 nM (active) | 88.7 nM (active) | 299 nM (active) | 137 nM (active) | 220 nM (active) | 119 nM (active)
3 | COc1ccc2[nH]c(C(=O)N3CC(CCl)c4c3cc(N)c3ccccc43)cc2c1 (stereo not given) | < 10 nM (active) | < 10.5 nM (active) | < 10 nM (active) | 12.2 nM (active) | < 10 nM (active) | < 10 nM (active) | < 10 nM (active) | < 10 nM (active) | 11.6 nM (active) | < 10 nM (active) | < 10 nM (active) | < 10 nM (active) | 11.9 nM (active) | 13.9 nM (active) | < 10 nM (active) | < 10 nM (active) | < 10 nM (active) | < 13.3 nM (active) | 14.2 nM (active) | < 14 nM (active)
